Assay results taken from patent US20080280879A1, “SUBSTITUTED HETEROCYCLIC DERIVATIVES AND THEIR PHARMACEUTICAL USE AND COMPOSITIONS” (priority 2007, published 2008).
≈ marks a conversion by molar mass, not a printed value.

Experiments:
Format in all cases: cell-based, Staphylococcus aureus
Staph aureus 1095 MRSA = test: MIC, microtiter broth dilution (CLSI M7-A7), Assay 1, Table 12 column A, no serum; settings: Assay 1, no serum; for MIC: Staphylococcus aureus, MRSA
Method: (§1) The assays described herein include a panel of bacterial isolates of Staphylococcus aureus. Assay 1 comprises the strains noted in Columns A through E, and Assay 2 comprises the strains noted in Columns F through H. The assays are performed in microtiter trays according to Methods for Dilution Antimicrobial Susceptibility Tests for Bacteria that Grow Aerobically; Approved Standard-7th edition (M7-A7) and interpreted according to the Performance Standards for Antimicrobial Susceptibility Testing; 16th Informational Supplement (M100-S16) published by Clinical Laboratory Standards Institute (CLSI). The antibacterial activity is presented in the form of a minimum inhibitory concentration (MIC) value in μg/ml format. The MIC value represents the lowest concentration of drug measured which prevented macroscopically visible growth under the conditions and specific doses tested. The compounds were initially dissolved in DMSO as 30 mM stocks and diluted accordingly to adjust to a concentration of 10 mg/ml or the compounds were dissolved in DMSO at a concentration of 10 mg/ml. For assessment of activity in the presence of human serum, S. aureus 1146 and S. aureus 1031 were inoculated into Mueller-Hinton Broth with 50% pooled inactivated human serum. In some cases, compounds were tested more than once in a particular assay. Where noted, the MIC value shown in Table 12 represents the geometric mean of the data from multiple runs.
(§2) It should be understood that the data in columns A-H represents MIC data in μg/ml and the notation “<=” means ‘less than or equal to’.

Staph aureus 1146 [1] = test: MIC in Mueller-Hinton Broth with 50% pooled inactivated human serum, Assay 1, Table 12; settings: for MIC: Staphylococcus aureus, 1146, Staph aureus 1146, Assay 1, 50% human serum, read-out: MIC, column C; for MIC, column C: Staph aureus 1146, Assay 1, 50% human serum
Method: as §1, §2

Staph aureus 1146 [2] = test: MIC, microtiter broth dilution (CLSI M7-A7), Assay 1, Table 12 column B, no serum; settings: for MIC: Staphylococcus aureus, 1146, Staph aureus 1146, Assay 1, no serum; for MIC, column B: Staph aureus 1146, Assay 1, no serum
Method: as §1, §2

Staph aureus 2811 = test: MIC, microtiter broth dilution (CLSI M7-A7), Assay 1, Table 12 column D, no serum; settings: for MIC: Staphylococcus aureus, 2811, Staph aureus 2811, Assay 1, no serum; for MIC, column D: Staph aureus 2811, Assay 1, no serum
Method: as §1, §2

Staph aureus 2812 = test: MIC, microtiter broth dilution (CLSI M7-A7), Assay 1, Table 12 column E, no serum; settings: for MIC: Staphylococcus aureus, 2812, Staph aureus 2812, Assay 1, no serum; for MIC, column E: Staph aureus 2812, Assay 1, no serum
Method: as §1, §2

MIC (Staph aureus 1095 MRSA) | MIC (Staph aureus 1146 [1]) | MIC (Staph aureus 1146 [2]) | MIC (Staph aureus 2811) | MIC (Staph aureus 2812) | Structure (SMILES) | MIC, column A (Staph aureus 1095 MRSA) | MIC, column C (Staph aureus 1146 [1]) | MIC, column B (Staph aureus 1146 [2]) | MIC, column D (Staph aureus 2811) | MIC, column E (Staph aureus 2812)
0.125 µg/mL (≈ 0.245 µM) | 2 µg/mL (≈ 3.92 µM) | ≤ 0.0625 µg/mL | ≤ 0.0625 µg/mL | ≤ 0.0625 µg/mL | COc1ccc2nccc(C(O)CC[C@@H]3CCN(C4CC(c5cccc(F)c5F)C4)C[C@@H]3C(=O)O)c2c1 (stereo partly drawn) [Example 36, (3R,4R)-1-[3-(2,3-difluorophenyl)cyclobutyl]-4-[3-hydroxy-3-(6-methoxyquinolin-4-yl)propyl] piperidine-3-carboxylic acid] | – | – | – | – | –
0.25 µg/mL (≈ 0.49 µM) | 1 µg/mL (≈ 1.96 µM) | ≤ 0.0625 µg/mL | ≤ 0.0625 µg/mL | 0.25 µg/mL (≈ 0.49 µM) | COc1ccc2nccc([C@@H](O)CC[C@@H]3CCN(C4CC(c5ccc(F)cc5F)C4)C[C@@H]3C(=O)O)c2c1 (stereo partly drawn) [Example 37, (3R,4R)-1-[3-(2,4-difluorophenyl)cyclobutyl]-4-[(3S)-3-hydroxy-3-(6-methoxyquinolin-4-yl)propyl] piperidine-3-carboxylic acid] | – | – | – | – | –
0.25 µg/mL (≈ 0.49 µM) | 4 µg/mL (≈ 7.83 µM) | 0.125 µg/mL (≈ 0.245 µM) | 0.125 µg/mL (≈ 0.245 µM) | 0.125 µg/mL (≈ 0.245 µM) | COc1ccc2nccc(C(O)CC[C@@H]3CCN(C4CC(c5cc(F)ccc5F)C4)C[C@@H]3C(=O)O)c2c1 (stereo partly drawn) [Example 38, (3R,4R)-1-[3-(2,5-difluorophenyl)cyclobutyl]-4-[3-hydroxy-3-(6-methoxyquinolin-4-yl)propyl] piperidine-3-carboxylic acid] | – | – | – | – | –
≤ 0.125 µg/mL | 1 µg/mL (≈ 1.89 µM) | ≤ 0.0625 µg/mL | 0.25 µg/mL (≈ 0.473 µM) | ≤ 0.0625 µg/mL | COc1ccc2ncc(F)c(C(O)CC[C@@H]3CCN(C4CC(c5cc(F)ccc5F)C4)C[C@@H]3C(=O)O)c2c1 (stereo partly drawn) [Example 39, (3R,4R)-1-[3-(2,5-difluorophenyl)cyclobutyl]-4-[3-(3-fluoro-6-methoxyquinolin-4-yl)-3-hydroxypropyl]piperidine-3-carboxylic acid] | – | – | – | – | –
0.125 µg/mL (≈ 0.245 µM) | 1.26 µg/mL (≈ 2.47 µM) | ≤ 0.0625 µg/mL | ≤ 0.0625 µg/mL | ≤ 0.0625 µg/mL | COc1ccc2nccc([C@@H](O)CC[C@@H]3CCN(C4CC(c5cc(F)ccc5F)C4)C[C@@H]3C(=O)O)c2c1 (stereo partly drawn) [Example 40, (3R,4R)-1-[3-(2,5-difluorophenyl)cyclobutyl]-4-[(3S)-3-hydroxy-3-(6-methoxyquinolin-4-yl)propyl] piperidine-3-carboxylic acid] | – | – | – | – | –
> 64 µg/mL | > 64 µg/mL | > 64 µg/mL | > 64 µg/mL | > 64 µg/mL | COc1ccc2nccc([C@@H](O)CC[C@@H]3CCN(C4CC(c5ccc(-c6ccccc6)cc5)C4)C[C@@H]3C(=O)O)c2c1 (stereo partly drawn) [Example 41, (3R,4R)-1-(3-biphenyl-4-ylcyclobutyl)-4-[(3S)-3-hydroxy-3-(6-methoxyquinolin-4-yl)propyl] piperidine-3-carboxylic acid] | – | – | – | – | –
> 64 µg/mL | 32 µg/mL (≈ 65.5 µM) | > 64 µg/mL | > 64 µg/mL | 32 µg/mL (≈ 65.5 µM) | COc1ccc2nccc(C(O)CC[C@@H]3CCN(C4CC(C)(c5ccccc5)C4)C[C@@H]3C(=O)O)c2c1 (stereo partly drawn) [Example 42, (3R,4R)-4-[3-hydroxy-3-(6-methoxyquinolin-4-yl)propyl]-1-(3-methyl-3-phenylcyclobutyl)piperidine-3-carboxylic acid] | – | – | – | – | –
0.25 µg/mL (≈ 0.512 µM) | 0.5 µg/mL (≈ 1.02 µM) | ≤ 0.0625 µg/mL | ≤ 0.0625 µg/mL | ≤ 0.0625 µg/mL | COc1ccc2nccc(C(O)CC[C@@H]3CCN(C4CC(c5ccccc5)C4C)C[C@@H]3C(=O)O)c2c1 (stereo partly drawn) [Example 43, (3R,4R)-4-[3-hydroxy-3-(6-methoxyquinolin-4-yl)propyl]-1-(2-methyl-3-phenylcyclobutyl)piperidine-3-carboxylic acid] | – | – | – | – | –
0.5 µg/mL (≈ 1.04 µM) | 2 µg/mL (≈ 4.16 µM) | 0.25 µg/mL (≈ 0.52 µM) | 0.125 µg/mL (≈ 0.26 µM) | 0.125 µg/mL (≈ 0.26 µM) | COc1ccc2nccc(C(O)CC[C@@H]3CCN(C4CC(C5CCCCC5)C4)C[C@@H]3C(=O)O)c2c1 (stereo partly drawn) [Example 44, (3R,4R)-1-(3-cyclohexylcyclobutyl)-4-[3-hydroxy-3-(6-methoxyquinolin-4-yl)propyl]piperidine-3-carboxylic acid] | – | – | – | – | –
≤ 0.125 µg/mL | 0.353 µg/mL (≈ 0.758 µM) | ≤ 0.0884 µg/mL | ≤ 0.0884 µg/mL | ≤ 0.0884 µg/mL | COc1ccc2nccc(C(O)CC[C@@H]3CCN(C4CC(C5CCCC5)C4)C[C@@H]3C(=O)O)c2c1 (stereo partly drawn) [Example 45, (3R,4R)-1-(3-cyclopentylcyclobutyl)-4-[3-hydroxy-3-(6-methoxyquinolin-4-yl)propyl]piperidine-3-carboxylic acid] | – | – | – | – | –
1 µg/mL (≈ 2.14 µM) | 8 µg/mL (≈ 17.1 µM) | 1 µg/mL (≈ 2.14 µM) | 1 µg/mL (≈ 2.14 µM) | 2 µg/mL (≈ 4.29 µM) | COc1ccc2nccc([C@H](O)CC[C@@H]3CCN(C4CC(C5CCCC5)C4)C[C@@H]3C(=O)O)c2c1 (stereo partly drawn) [Example 46, (3R,4R)-1-(3-cyclopentylcyclobutyl)-4-[(3R)-3-hydroxy-3-(6-methoxyquinolin-4-yl)propyl]piperidine-3-carboxylic acid] | – | – | – | – | –
0.125 µg/mL (≈ 0.268 µM) | 0.5 µg/mL (≈ 1.07 µM) | ≤ 0.0625 µg/mL | ≤ 0.0625 µg/mL | 0.125 µg/mL (≈ 0.268 µM) | COc1ccc2nccc([C@@H](O)CC[C@@H]3CCN(C4CC(C5CCCC5)C4)C[C@@H]3C(=O)O)c2c1 (stereo partly drawn) [Example 47, (3R,4R)-1-(3-cyclopentylcyclobutyl)-4-[(3S)-3-hydroxy-3-(6-methoxyquinolin-4-yl)propyl]piperidine-3-carboxylic acid] | – | – | – | – | –
– | – | – | – | – | COc1ccc2nccc([C@@H](O)CC[C@@H]3CCN(C4CC(C5CCCC5)C4)C[C@@H]3C(=O)O)c2c1 (stereo partly drawn) [Example 48, (3R,4R)-1-(3-cyclopentylcyclobutyl)-4-[(3S)-3-hydroxy-3-(6-methoxyquinolin-4-yl)propyl]piperidine-3-carboxylic acid] | 0.25 µg/mL (≈ 0.536 µM) | 1 µg/mL (≈ 2.14 µM) | 0.125 µg/mL (≈ 0.268 µM) | 0.125 µg/mL (≈ 0.268 µM) | 0.125 µg/mL (≈ 0.268 µM)
– | – | – | – | – | COc1ccc2nccc(C(O)CC[C@@H]3CCN(C4CC(CC5CCCC5)C4)C[C@@H]3C(=O)O)c2c1 (stereo partly shown) [Example 49] | 0.125 µg/mL (≈ 0.26 µM) | 0.25 µg/mL (≈ 0.52 µM) | <=.0625 μg/ml | <=.0625 μg/ml | <=.0625 μg/ml
32 µg/mL (≈ 66.3 µM) | 32 µg/mL (≈ 66.3 µM) | 32 µg/mL (≈ 66.3 µM) | 64 µg/mL (≈ 133 µM) | 64 µg/mL (≈ 133 µM) | COc1ccc2nccc(C(O)CC[C@@H]3CCN(C4CC(C5CCOCC5)C4)C[C@@H]3C(=O)O)c2c1 (stereo partly drawn) [Example 50, (3R,4R)-4-[3-hydroxy-3-(6-methoxyquinolin-4-yl)propyl]-1-[3-(tetrahydro-2H-pyran-4-yl)cyclobutyl] piperidine-3-carboxylic acid] | – | – | – | – | –
32 µg/mL (≈ 66.3 µM) | 16 µg/mL (≈ 33.2 µM) | 16 µg/mL (≈ 33.2 µM) | 16 µg/mL (≈ 33.2 µM) | 8 µg/mL (≈ 16.6 µM) | COc1ccc2nccc(C(O)CC[C@@H]3CCN(C4CC(CC5CCOC5)C4)C[C@@H]3C(=O)O)c2c1 (stereo partly drawn) [Example 51, (3R,4R)-4-[3-hydroxy-3-(6-methoxyquinolin-4-yl)propyl]-1-[3-(tetrahydrofuran-3-ylmethyl)cyclobutyl]piperidine-3-carboxylic acid] | – | – | – | – | –
> 64 µg/mL | 16 µg/mL (≈ 33.2 µM) | 16 µg/mL (≈ 33.2 µM) | 8 µg/mL (≈ 16.6 µM) | 32 µg/mL (≈ 66.3 µM) | COc1ccc2nccc(C(O)CC[C@@H]3CCN(C4CC(CC5CCCO5)C4)C[C@@H]3C(=O)O)c2c1 (stereo partly drawn) [Example 52, (3R,4R)-4-[3-hydroxy-3-(6-methoxyquinolin-4-yl)propyl]-1-[3-(tetrahydrofuran-2-ylmethyl)cyclobutyl]piperidine-3-carboxylic acid] | – | – | – | – | –
– | – | – | – | – | COc1ccc2nccc(C(O)CC[C@@H]3CCN(C4CC5CCCCCC54)C[C@@H]3C(=O)O)c2c1 (stereo partly drawn) [Example 53, (3R,4R)-1-[(1,7)-bicyclo[5.2.0]non-8-yl]-4-[3-hydroxy-3-(6-methoxyquinolin-4-yl)propyl] piperidine-3-carboxylic acid] | 16 µg/mL (≈ 34.3 µM) | >64 µg/mL | >64 µg/mL | 32 µg/mL (≈ 68.6 µM) | 16 µg/mL (≈ 34.3 µM)
– | – | – | – | – | COc1ccc2nccc(C(O)CC[C@@H]3CCN(C4CC5CCCCC54)C[C@@H]3C(=O)O)c2c1 (stereo partly drawn) [Example 54, (3R,4R)-1-[(1,6)-bicyclo[4.2.0]oct-7-yl]-4-[3-hydroxy-3-(6-methoxyquinolin-4-yl)propyl] piperidine-3-carboxylic acid] | >64 µg/mL | >64 µg/mL | 64 µg/mL (≈ 141 µM) | >64 µg/mL | >64 µg/mL
4 µg/mL (≈ 8.84 µM) | 32 µg/mL (≈ 70.7 µM) | 1 µg/mL (≈ 2.21 µM) | 2 µg/mL (≈ 4.42 µM) | 2 µg/mL (≈ 4.42 µM) | COc1ccc2nccc(C(O)CC[C@@H]3CCN(C4CC5(CCCC5)C4)C[C@@H]3C(=O)O)c2c1 (stereo partly drawn) [Example 55, (3R,4R)-4-[3-hydroxy-3-(6-methoxyquinolin-4-yl)propyl]-1-spiro[3.4]oct-2-ylpiperidine-3-carboxylic acid] | – | – | – | – | –
